Patent publication US20230085307A1, “PYRIDAZINONE COMPOUND AND HERBICIDE” (NISSAN CHEMICAL CORPORATION, priority 2019, published 2023)

Legend:
[1] = test system: chickweed; assay: Test Example 5: herbicidal effect by foliage application, plastic box (Table 20, symbol P); format: in vivo, common chickweed (Stellaria media); conditions: foliage application, evaluated three weeks after application; for herbicidal effect on P: chickweed (criteria 0-5): 320 g/ha; for P: chickweed, herbicidal effect (criteria 0-5): AAH 320 g/ha
Outline: (§1)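 Post-emergence foliar test in sterilized diluvial soil. Compound applied as water-diluted emulsion at a predetermined rate to 14-day-old plants; evaluation at three weeks.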

[2] = test system: persian speedwell; assay: Test Example 5: herbicidal effect by foliage application, plastic box (Table 20, symbol R); format: in vivo, Persian speedwell (Veronica persica); conditions: foliage application, evaluated three weeks after application; for herbicidal effect on R: persian speedwell (criteria 0-5): 320 g/ha; for R: persian speedwell, herbicidal effect (criteria 0-5): AAH 320 g/ha
Outline: as §1

[3] = test system: redroot pigweed; assay: Test Example 5: herbicidal effect by foliage application, plastic box (Table 20, symbol N); format: in vivo, redroot pigweed (Amaranthus retroflexus); conditions: foliage application, evaluated three weeks after application; for herbicidal effect on N: redroot pigweed (criteria 0-5): 320 g/ha; for N: redroot pigweed, herbicidal effect (criteria 0-5): AAH 320 g/ha
Outline: as §1

[4] = test system: barnyard grass; assay: Test Example 4: herbicidal effect by soil treatment (Table 19, symbol H); format: in vivo, barnyard grass (Echinochloa crus-galli); conditions: amount of applied herbicide 320 g/ha
Outline: (§2)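 Scoring uses the grading scale of an earlier test, three weeks post-application. Treatment consists of spraying a diluted emulsion formulation across the surface of sterilized diluvial soil in which seeds are buried near 1.5 cm deep; boxes are kept in a greenhouse between 25° C. and 30° C.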

[5] = test system: redroot pigweed; assay: Test Example 4: herbicidal effect by soil treatment (Table 19, symbol N); format: in vivo, redroot pigweed (Amaranthus retroflexus); conditions: amount of applied herbicide 320 g/ha
Outline: as §2

[6] = test system: Japanese bulrush; assay: Test Example 2: herbicidal activity, application during weed generation under submerged conditions (Table 17, symbol B); format: in vivo, Japanese bulrush (Schoenoplectus juncoides); conditions: AAH 320 g/ha; application during weed generation, submerged conditions
Outline: (§3)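 Mixed weed seedlings in alluvial soil under a 4 cm water layer, greenhouse-grown at 25–30° C. Compound given as a diluted emulsion into the floodwater at the 1–2 leaf stage; response graded after three weeks.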

[7] = test system: lambsquarters; assay: Test Example 5: herbicidal effect by foliage application, plastic box (Table 20, symbol O); format: in vivo, lambsquarters (Chenopodium album); conditions: foliage application, evaluated three weeks after application; for herbicidal effect on O: lambsquarters (criteria 0-5): 320 g/ha; for O: lambsquarters, herbicidal effect (criteria 0-5): AAH 320 g/ha
Outline: as §1

[8] = test system: barnyard grass; assay: Test Example 3: herbicidal effect by foliage application, Wagner pot (Table 18, symbol H); format: in vivo, barnyard grass (Echinochloa crus-galli); conditions: amount of applied herbicide 320 g/ha
Outline: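 Plants were sown in alluvial soil held under 0.1–0.5 cm standing water and grown 14 days in a greenhouse at 25–30 °C. An emulsifiable formulation, water-diluted to the set dose, was then sprayed onto the foliage, and effects were scored three weeks later using previously defined criteria.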

[9] = test system: blackgrass; assay: Test Example 4: herbicidal effect by soil treatment (Table 19, symbol J); format: in vivo, blackgrass (Alopecurus myosuroides); conditions: amount of applied herbicide 320 g/ha
Outline: as §2

[10] = test system: oval-leafed pondweed; assay: Test Example 2: herbicidal activity, application during weed generation under submerged conditions (Table 17, symbol C); format: in vivo, oval-leafed pondweed (Monochoria vaginalis); conditions: AAH 320 g/ha; application during weed generation, submerged conditions
Outline: as §3

[11] = test system: oval-leafed pondweed; assay: Test Example 1: herbicidal activity, application before weed generation under submerged conditions (Table 16, symbol C); format: in vivo, oval-leafed pondweed (Monochoria vaginalis); conditions: 320 g/ha applied herbicide
Outline: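 Submerged Wagner pots (alluvial soil, 4 cm water) sown with weed seeds and planted with 2.5-leaf rice seedlings; emulsifiable concentrate diluted in water applied to water surface on sowing day. Held in greenhouse at 25-30 °C; injury scored 0-5 by herbicidal rate after three weeks.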

[12] = test system: persian speedwell; assay: Test Example 4: herbicidal effect by soil treatment (Table 19, symbol R); format: in vivo, Persian speedwell (Veronica persica); conditions: amount of applied herbicide 320 g/ha
Outline: as §2

[13] = test system: southern crabgrass; assay: Test Example 5: herbicidal effect by foliage application, plastic box (Table 20, symbol F); format: in vivo, southern crabgrass (Digitaria ciliaris); conditions: foliage application, evaluated three weeks after application; for herbicidal effect on F: southern crabgrass (criteria 0-5): 320 g/ha; for F: southern crabgrass, herbicidal effect (criteria 0-5): AAH 320 g/ha
Outline: as §1

[14] = test system: windgrass; assay: Test Example 5: herbicidal effect by foliage application, plastic box (Table 20, symbol L); format: in vivo, windgrass (Apera spica-venti); conditions: foliage application, evaluated three weeks after application; for herbicidal effect on L: windgrass (criteria 0-5): 320 g/ha; for L: windgrass, herbicidal effect (criteria 0-5): AAH 320 g/ha
Outline: as §1

[15] = test system: velvetleaf; assay: Test Example 4: herbicidal effect by soil treatment (Table 19, symbol M); format: in vivo, velvetleaf (Abutilon theophrasti); conditions: amount of applied herbicide 320 g/ha
Outline: as §2

[16] = test system: green foxtail; assay: Test Example 4: herbicidal effect by soil treatment (Table 19, symbol G); format: in vivo, green foxtail (Setaria viridis); conditions: amount of applied herbicide 320 g/ha
Outline: as §2

Structure (SMILES) | herbicidal effect on P: chickweed (criteria 0-5) [1] | herbicidal effect on R: persian speedwell (criteria 0-5) [2] | herbicidal effect on N: redroot pigweed (criteria 0-5) [3] | herbicidal effect on H: barnyard grass [4] | herbicidal effect on N: redroot pigweed [5] | herbicidal effect rating, B: Japanese bulrush [6] | herbicidal effect on O: lambsquarters (criteria 0-5) [7] | herbicidal effect on H: barnyard grass [8] | herbicidal effect on J: blackgrass [9] | herbicidal effect rating, C: oval-leafed pondweed [10] | Herbicidal effect on C: oval-leafed pondweed (grade 0-5) [11] | herbicidal effect on R: persian speedwell [12] | herbicidal effect on M: velvetleaf [15] | herbicidal effect on G: green foxtail [16] | P: chickweed, herbicidal effect (criteria 0-5) [1] | R: persian speedwell, herbicidal effect (criteria 0-5) [2] | N: redroot pigweed, herbicidal effect (criteria 0-5) [3] | O: lambsquarters, herbicidal effect (criteria 0-5) [7] | F: southern crabgrass, herbicidal effect (criteria 0-5) [13] | L: windgrass, herbicidal effect (criteria 0-5) [14] | also measured
CCCC(=O)Oc1c(C)nn(C)c(=O)c1-c1c(-c2ccc(C(F)F)cc2)sc2ccc(F)cc12 [2-228] | 5 (Herbicidal rate of 90% or more (almost completely withered)) | 5 (Herbicidal rate of 90% or more (almost completely withered)) | 5 (Herbicidal rate of 90% or more (almost completely withered)) | 5 (Herbicidal rate of 90% or more (almost completely withered)) | 4 (Herbicidal rate of 70% or more and less than 90%) | 3 (Herbicidal rate of 40% or more and less than 70%) | 5 (Herbicidal rate of 90% or more (almost completely withered)) | 5 (Herbicidal rate of 90% or more (almost completely withered)) | 0 (Herbicidal rate of 5% or less (almost no effect)) | 3 (Herbicidal rate of 40% or more and less than 70%) | 4 (Herbicidal rate of 70% or more and less than 90%) | 5 (Herbicidal rate of 90% or more (almost completely withered)) | 3 (Herbicidal rate of 40% or more and less than 70%) | 4 (Herbicidal rate of 70% or more and less than 90%) |  |  |  |  |  |  | herbicidal effect on F: southern crabgrass (criteria 0-5) [13]: 4 (Herbicidal rate of 70% or more and less than 90%); herbicidal effect on L: windgrass (criteria 0-5) [14]: 0 (Herbicidal rate of 5% or less (almost no effect))
CCSc1ccc(-c2sc3ccc(F)cc3c2-c2c(O)c(C)nn(C)c2=O)cc1 [2-244] | 5 (Herbicidal rate of 90% or more (almost completely withered)) | 5 (Herbicidal rate of 90% or more (almost completely withered)) | 5 (Herbicidal rate of 90% or more (almost completely withered)) | 4 (Herbicidal rate of 70% or more and less than 90%) | 5 (Herbicidal rate of 90% or more (almost completely withered)) | 3 (Herbicidal rate of 40% or more and less than 70%) | 5 (Herbicidal rate of 90% or more (almost completely withered)) | 5 (Herbicidal rate of 90% or more (almost completely withered)) | 5 (Herbicidal rate of 90% or more (almost completely withered)) | 4 (Herbicidal rate of 70% or more and less than 90%) | 0 (Herbicidal rate of 5% or less (almost no effect)) | 5 (Herbicidal rate of 90% or more (almost completely withered)) | 2 (Herbicidal rate of 20% or more and less than 40%) | 5 (Herbicidal rate of 90% or more (almost completely withered)) |  |  |  |  |  |  | herbicidal effect on F: southern crabgrass (criteria 0-5) [13]: 5 (Herbicidal rate of 90% or more (almost completely withered)); herbicidal effect on L: windgrass (criteria 0-5) [14]: 5 (Herbicidal rate of 90% or more (almost completely withered))
Cc1nn(C)c(=O)c(-c2c(-c3ccc(SC4CC4)cc3)sc3ccc(F)cc23)c1O [2-254] |  |  |  | 5 (Herbicidal rate of 90% or more (almost completely withered)) | 5 (Herbicidal rate of 90% or more (almost completely withered)) | 0 (Herbicidal rate of 5% or less (almost no effect)) |  | 5 (Herbicidal rate of 90% or more (almost completely withered)) | 4 (Herbicidal rate of 70% or more and less than 90%) | 0 (Herbicidal rate of 5% or less (almost no effect)) | 1 (Herbicidal rate of 5% or more and less than 20%) | 5 (Herbicidal rate of 90% or more (almost completely withered)) | 2 (Herbicidal rate of 20% or more and less than 40%) | 5 (Herbicidal rate of 90% or more (almost completely withered)) | 5 (Herbicidal rate of 90% or more (almost completely withered)) | 5 (Herbicidal rate of 90% or more (almost completely withered)) | 5 (Herbicidal rate of 90% or more (almost completely withered)) | 5 (Herbicidal rate of 90% or more (almost completely withered)) | 5 (Herbicidal rate of 90% or more (almost completely withered)) | 5 (Herbicidal rate of 90% or more (almost completely withered)) | 
Cc1nn(C)c(=O)c(-c2c(-c3ccc([S+]([O-])C(C)C)cc3)sc3ccc(F)cc23)c1O (centres unmarked) [2-257] |  |  |  | 4 (Herbicidal rate of 70% or more and less than 90%) | 5 (Herbicidal rate of 90% or more (almost completely withered)) | 0 (Herbicidal rate of 5% or less (almost no effect)) |  | 5 (Herbicidal rate of 90% or more (almost completely withered)) | 1 (Herbicidal rate of 5% or more and less than 20%) | 0 (Herbicidal rate of 5% or less (almost no effect)) | 2 (Herbicidal rate of 20% or more and less than 40%) | 5 (Herbicidal rate of 90% or more (almost completely withered)) | 3 (Herbicidal rate of 40% or more and less than 70%) | 2 (Herbicidal rate of 20% or more and less than 40%) | 5 (Herbicidal rate of 90% or more (almost completely withered)) | 5 (Herbicidal rate of 90% or more (almost completely withered)) | 5 (Herbicidal rate of 90% or more (almost completely withered)) | 5 (Herbicidal rate of 90% or more (almost completely withered)) | 3 (Herbicidal rate of 40% or more and less than 70%) | 5 (Herbicidal rate of 90% or more (almost completely withered)) | 
Cc1nn(C)c(=O)c(-c2c(-c3ccc(S(C)(=O)=O)cc3)sc3ccc(F)cc23)c1O [2-258] |  |  |  | 5 (Herbicidal rate of 90% or more (almost completely withered)) | 4 (Herbicidal rate of 70% or more and less than 90%) | 0 (Herbicidal rate of 5% or less (almost no effect)) |  | 5 (Herbicidal rate of 90% or more (almost completely withered)) | 5 (Herbicidal rate of 90% or more (almost completely withered)) | 3 (Herbicidal rate of 40% or more and less than 70%) | 0 (Herbicidal rate of 5% or less (almost no effect)) | 5 (Herbicidal rate of 90% or more (almost completely withered)) | 3 (Herbicidal rate of 40% or more and less than 70%) | 5 (Herbicidal rate of 90% or more (almost completely withered)) | 5 (Herbicidal rate of 90% or more (almost completely withered)) | 5 (Herbicidal rate of 90% or more (almost completely withered)) | 5 (Herbicidal rate of 90% or more (almost completely withered)) | 5 (Herbicidal rate of 90% or more (almost completely withered)) | 5 (Herbicidal rate of 90% or more (almost completely withered)) | 5 (Herbicidal rate of 90% or more (almost completely withered)) | 
